Measured values: patent US20240336638A1, “IMIDAZOLE COMPOUND, AND INTERMEDIATE AND APPLICATION THEREOF” (priority 2021, published 2024)

Key:
[1] = tested on: AA-induced platelet aggregation; experiment: Inhibitory effect on AA-induced platelet aggregation in rabbits in vitro; type: cell-based, rabbit; conditions: 1*10^−4 M; text conclusion (2)
Description: Several experimental groups were established, including a blank control group, an AA model control group, and various test compounds. Each test compound had three concentration groups: 10^−3 M, 10^−4 M, and 10^−5 M.
Rabbits were anesthetized with a 20% urethane solution (5 mL/kg body weight) through intraperitoneal injection. After being fixed in a supine position, the skin of the neck was cut about 6 cm, bluntly separated with a hemostat, and the trachea was exposed after the common carotid artery was separated. The distal end of the common carotid artery was ligated with a fine thread, and the proximal end was clamped with an arterial clamp for vascular intubation. After the intubation was fixed, the artery clamp was opened, and the blood was placed into a blood collection tube containing 3.8% trisodium citrate so that the blood was mixed well with the 3.8% trisodium citrate in a volume ratio of 9:1. […]
First, 300 μL of PPP was added to the test cup and put into the test wells, and calibrated by pressing the “PPP” key. […] The maximum aggregation rate within 4 minutes was measured. […]
The platelet aggregation inhibition rate was calculated with the following formula: […]
All data were expressed as mean standard deviation (mean b SD). […] Intergroup data were analyzed using one-way ANOVA, with P<0.05 considered as statistically significant and P<0.01 considered as highly significant.

[2] = tested on: AA-induced platelet aggregation; experiment: Inhibitory effect on AA-induced platelet aggregation in rats in vitro (washed platelets); type: cell-based, rat; conditions: 1*10^−4 M
Description: Several experimental groups were established, including a blank control group, an AA (arachidonic acid) model control group, and various test compounds. Each test compound had three concentration groups: 10^−3 M, 10^−4 M, and 10^−5 M. The data from the blank and model control group were shared among the different drug concentration groups as a control.
Male SD rats were anesthetized with 3% chloral hydrate (300 mg/kg) through intraperitoneal injection. After being fixed in a supine position, the skin of the neck was cut about 3 cm, bluntly separated with a hemostat, and the trachea was exposed after the common carotid artery was separated. The distal end of the common carotid artery was ligated with a fine thread, and the proximal end was clamped with an arterial clamp for vascular intubation. After the intubation was fixed, the artery clamp was opened, and the blood was placed into a blood collection tube containing 3.8% trisodium citrate so that the blood was mixed well with the 3.8% trisodium citrate in a volume ratio of 9:1.
The prepared anticoagulant blood was mixed well and centrifuged for 10 minutes at 500 rpm, then the upper layer of plasma was aspirated to obtain platelet-rich plasma (PRP), and the PRP was centrifuged again for 5 minutes at 3,000 rpm. The supernatant was discarded, and the platelet precipitate was obtained, which was washed once with Ca^2+-free HEPES-Tyrode's buffer, then centrifuged at 3,000 rpm for 5 minutes. The supernatant was discarded, and the platelets were resuspended with Ca^2+-free HEPES-Tyrode's buffer to obtain the washed platelets.
First, 300 μL of Ca^2+-containing HEPES-Tyrode's solution was taken into the test cup, put into the test wells, and calibrated by pressing the “PPP” key. Subsequently, 240 μL of the washed platelets were added to the test cup, then added with 30 μL of different concentrations of drug solution, incubated for 10 minutes at 37° C. in a preheated bath, and then put into the test wells. 3 μL of 100× CaCl2 solution (final concentration of 0.2 g/L) and 30 μL of inducer (final concentration of AA of 800 μM) were added to the test wells, and then the “Start” key was pressed immediately. The maximum aggregation rate was recorded every 60 s. The measurement was repeated three times for each concentration for 10 minutes, and the aggregation curve was plotted.
The platelet aggregation inhibition rate was calculated with the following formula:
Inhibition rate (%)=(maximum aggregation rate in the model control group−maximum aggregation rate in the administration group)/maximum aggregation rate in the model control group×100%
All data were expressed as mean±standard deviation (mean±SD). SPSS 22.0 software was used for statistical analysis of the data. Intergroup data were analyzed using one-way ANOVA, with P<0.05 considered as statistically significant and P<0.01 considered as highly significant.

MCAO/R rats = experiment: Therapeutic administration (i.v.) in middle cerebral artery occlusion/reperfusion (MCAO/R) rats; type: in vivo, rat; conditions: for Bleeding time / Brain water content (%) / Cerebral infarction rate (%) / Clotting time / Neurological function score: once a day for 3 days, mean ± SD, n = 8; for Neurological function score: modified Bederson score
Description: Male SD rats weighing 250 to 300 g were taken, and the rats in each group fasted for 12 hours before modeling, while water was not restricted. According to the method of Longa et al.^[1], a rat model of MCAO/R was established by occluding the blood flow of internal carotid artery using the thread embolization method. The rats were anesthetized with 3% chloral hydrate (300 mg/kg, 1 mL/100 g body weight) through intraperitoneal injection and fixed in the supine position on the operating table. A midline incision was made in the neck, and the right common carotid artery was isolated using forceps and threaded for later use. The external and internal carotid arteries were isolated from the bifurcation of the common carotid artery. A single thread was threaded through the internal carotid artery, and two threads were threaded through the external carotid artery. Both distal and proximal ends were ligated, and the middle part of the ligation site was cut using ophthalmic scissors. The proximal main trunk of the external carotid artery was isolated and reserved for later use. The prepared cotton thread was used to half-ligate the common carotid artery (tying a slipknot), and the thread prepared for the internal carotid artery was tightened with hemostatic forceps, temporarily occluding the blood flow of the internal carotid artery. A small incision at the proximal main trunk of the external carotid artery was made using ophthalmic scissors, and then, the fishing line was held with straight forceps, inserted from this incision, and slowly advanced through the isolated proximal main trunk of the external carotid artery towards the intracranial direction of the internal carotid artery. The advancement was stopped at a predetermined position, and then the thread of the internal carotid artery that was tightened with the hemostatic forceps was loosened. […] Another thread was threaded and tightened around the proximal main trunk of the external carotid artery and the fishing line that had already been inserted into the predetermined position. The half-ligated thread on the common carotid artery was then loosened, and the skin was subsequently sutured. After 2 hours of ischemia, a small section of the fishing line was pulled out. […] After rats in the blank control group were anesthetized, only the bifurcation of the internal and external carotid arteries was exposed without the occlusion of the MCA.
Successfully modeled rats (neurological function score of 3 after reperfusion) were taken and divided into 20 groups (8 rats for each) according to the random number table method. The groups were divided into a model control group, three dose groups (high, 12 mg/kg, 2.4 mg/mL; medium, 6 mg/kg, 1.2 mg/mL; low, 3 mg/kg, 0.6 mg/mL) for each of the six test compounds, and a positive drug Ozagrel group (6 mg/kg, 1.2 mg/mL), respectively. Both blank and model control groups were administered equal volumes of mixed solvents, and the rats in each group were administered by tail vein injection (i.v.) 2 hours after reperfusion, once a day for 3 consecutive days, with a volume of 0.5 mL/100 g body weight.
Ten minutes after the last administration, the neurological function of the animals was graded according to the modified Bederson scoring method. The standard is as follows[2]: • 0 point: no neurological symptoms; • 1 point: when the rat is suspended by lifting its tail, the forelimb on the surgical side of the rat was flexed and pressed against the chest wall; • 2 points: on a smooth plane, when the rat is pushed from the surgical side to the opposite side, the resistance is less than when it is moved to the same side; • 3 points: the animal moves around or in circles when moving freely; • 4 points: flaccid paralysis, no spontaneous movement of limbs.
After Bederson scoring, the rats were executed by cervical dislocation, and the whole brain was removed and weighed. After weighing, the whole brain was placed in a −20° C. refrigerator for 20 minutes. […]

[3] = medium dose 6 mg/kg i.v. (Ozagrel group 6 mg/kg)

O=C(O)/C=C/c1ccc(Cn2cnc(Cl)c2)cn1 [Compound 59, (E)-3-(5-((4-Chloro-1H-imidazol-1-yl)methyl)pyridin-2-yl)acrylic acid]
significant inhibition of AA-induced platelet aggregation [1]: can significantly inhibit

O=C(O)C1CN(c2ccc(Cn3ccnc3)nc2)C1 [Compound 56, 1-(6-((1H-Imidazol-1-yl)methyl)pyridin-3-yl)azetidine-3-carboxylic acid]
significant inhibition of AA-induced platelet aggregation [1]: can significantly inhibit

O=C(O)[C@@H]1C[C@H]1c1ccc(Cn2cnc(Cl)c2)cc1F [Compound 13, (1R,2R)-2-(4-((4-Chloro-1H-imidazol-1-yl)methyl)-2-fluorophenyl)cyclopropane-1-carboxylic acid]
significant inhibition of AA-induced platelet aggregation [2]: can significantly inhibit | Bleeding time (MCAO/R rats; high dose 12 mg/kg i.v.): 301.25 ± 46.40 s | Brain water content (%) (MCAO/R rats; high dose 12 mg/kg i.v.): 80.73 ± 1.10% | Cerebral infarction rate (%) (MCAO/R rats; high dose 12 mg/kg i.v.): 14.30% | Clotting time (MCAO/R rats; high dose 12 mg/kg i.v.): 163.63 s | Neurological function score (MCAO/R rats; high dose 12 mg/kg i.v.): 1.50 ± 0.53 | infarct size (MCAO/R rats; low dose): can also significantly reduce | Bleeding time (MCAO/R rats; low dose 3 mg/kg i.v.): 303.00 ± 39.59 s | Brain water content (%) (MCAO/R rats; low dose 3 mg/kg i.v.): 80.87 ± 2.84% | Cerebral infarction rate (%) (MCAO/R rats; low dose 3 mg/kg i.v.): 23.02% | Clotting time (MCAO/R rats; low dose 3 mg/kg i.v.): 146.94 ± 24.73 s | Neurological function score (MCAO/R rats; low dose 3 mg/kg i.v.): 2.00 ± 0.53 | coagulation time of rats (MCAO/R rats; medium and high doses): can significantly prolong | Bleeding time (MCAO/R rats; [3]): 314.50 ± 41.83 s | Brain water content (%) (MCAO/R rats; [3]): 80.58 ± 1.56% | Cerebral infarction rate (%) (MCAO/R rats; [3]): 22.15% | Clotting time (MCAO/R rats; [3]): 164.56 s | Neurological function score (MCAO/R rats; [3]): 1.88 ± 0.64
